Experimental data: patent US7101878B1 (Agouron Pharmaceuticals, Inc., priority 1998, dated 2006)
Read-outs that look alike come from different tables or passages of the source.

Target: T1, human GnRH receptor (Homo sapiens, UniProt P30968)
T1 construct: expressed in transfected cells; host or cells: HEK 293 (hGnRH-R/293, from Dr. Stuart Sealfon)
T1 sequence (P30968 1-328): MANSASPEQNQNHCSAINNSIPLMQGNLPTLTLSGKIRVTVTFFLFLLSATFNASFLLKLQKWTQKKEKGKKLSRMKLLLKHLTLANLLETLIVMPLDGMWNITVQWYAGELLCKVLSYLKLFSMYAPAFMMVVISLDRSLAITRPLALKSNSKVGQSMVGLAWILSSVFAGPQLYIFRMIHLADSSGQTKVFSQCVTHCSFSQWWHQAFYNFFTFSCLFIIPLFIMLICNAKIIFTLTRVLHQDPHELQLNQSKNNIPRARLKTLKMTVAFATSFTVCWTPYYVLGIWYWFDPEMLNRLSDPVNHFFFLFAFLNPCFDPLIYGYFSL
Experiment: Radioligand binding, 125I-GnRH-A displacement, membranes of HEK 293 cells with human GnRH receptor
Conditions: for remaining activity at 10 µM / remaining activity at 1 µM: substrate remaining, closer to zero = closer to 100% inhibition; for remaining activity at 10 µM: 10 uM compound, read-out: S%R 10 uM hGnRHR; for remaining activity at 1 µM: 1 uM compound, read-out: S%R 1 uM hGnRHR; for IC50: read-out: hGnRH IC50
Protocol: All compounds were diluted in 1% DMSO (final assay concentration) in binding assay buffer. […] Reactions were terminated by rapid filtration onto 96-well Packard GF/C filters soaked in 0.1% polyethyleneimine. Filters were washed three times with PBS buffer, dried and counted on a Packard Topcount by liquid scintillation counting.
Assay conditions were identical for assessing compound activities at other species. […] IC50 values for control peptides and test compounds were calculated utilizing GraphPad Prism™ software.
Crude compounds were tested using the competitive radioligand binding assay described above.
The reaction mixture was vortexed and incubated for 1 min at room temperature. After one min, the mixture was vortexed and allowed to incubate for an additional minute. 2 ml of 0.5 M acetic acid/1% BSA was added to the reaction tube and the mixture was added to a C18 Sep-Pak cartridge. The cartridge was washed with subsequent washes of 5 ml H2O and 5 ml 0.5M acetic acid and then eluted with 5×1 ml of 60% CH3CN/40% 0.5M acetic acid. The eluate was diluted with 3× volume of HPLC buffer A (0.1% TFA in H2O) and loaded onto a C18 column. The iodinated product was eluted over 20-25 min with a gradient of 25-100% CH3CN containing 0.1% TFA. The radioactive fractions (750 ed/fraction) are collected into clean polypropylene tubes containing 100 μl of 10% BSA. Fractions were assessed for biological activity by radioligand binding.
S%R is the substrate remaining.

[1] = 1 uM, read-out: % Inhib. @ 1 uM hGnRH
[2] = 1 h, repeat of % Inhib. at 1 uM, read-out: Repeats @ 1 uM hGnRH

Row | SMILES | inhibition at 1 µM [1] [%] | inhibition at 1 µM [2] [%] | other results
1 | CCc1ccc(CCNC(=O)c2ccc(Cc3cc4c(cc3C)C(C)(C)CCC4(C)C)o2)cc1 | 29 | 32 | –
2 | COc1ccccc1CNC(=O)c1ccc(Cc2cc3c(cc2C)C(C)(C)CCC3(C)C)o1 [drawing 1078] | 86 | 88 | –
3 | Cc1cc2c(cc1Cc1ccc(C(=O)NC(CO)c3ccccc3)o1)C(C)(C)CCC2(C)C (stereo not drawn) | 17 | 26 | –
4 | Cc1cc2c(cc1Cc1ccc(C(=O)N3CCN(c4cccc(Cl)c4)CC3)o1)C(C)(C)CCC2(C)C | -22 | 9 | –
5 | Cc1cc2c(cc1Cc1ccc(C(=O)NCc3ccccc3)o1)C(C)(C)CCC2(C)C [drawing 1070] | 82 | 85 | –
6 | Cc1cc2c(cc1Cc1ccc(C(=O)NCC3CN(Cc4ccccc4)CCO3)o1)C(C)(C)CCC2(C)C (stereo not drawn) [drawing 1049] | 35 | 42 | –
7 | Cc1cc2c(cc1Cc1ccc(C(=O)Nc3cccnc3)o1)C(C)(C)CCC2(C)C [Compound 320] | – | – | remaining activity at 10 µM (1 h): 9%
8 | Cc1cc2c(cc1Cc1ccc(C(=O)Nc3ccccc3C(=O)NCC(C)(C)CN(C)C)o1)C(C)(C)CCC2(C)C [Compound 344] | – | – | remaining activity at 10 µM (1 h): 57%
9 | Cc1cc2c(cc1Cc1ccc(C(=O)Nc3cc(CO)ccc3C)o1)C(C)(C)CCC2(C)C [Compound 372] | – | – | remaining activity at 10 µM (1 h): 1%
10 | Cc1cc2c(cc1Cc1ccc(C(=O)NCc3cccc([N+](=O)[O-])c3)o1)C(C)(C)CCC2(C)C [Compound 451] | – | – | remaining activity at 1 µM (1 h): 24%
11 | Cc1cc2c(cc1Cc1ccc(C(=O)NCCN3CCOCC3)o1)C(C)(C)CCC2(C)C [drawing 987] | 63 | 69 | –
12 | Cc1cc2c(cc1Cc1ccc(C(=O)NCc3cccc(CNc4ncc(F)c(N)n4)c3)o1)C(C)(C)CCC2(C)C [Compound 157] | – | – | IC50: 620 nM
13 | Cc1cc2c(cc1Cc1ccc(C(=O)N3CCN(c4cnccn4)CC3)o1)C(C)(C)CCC2(C)C | 3 | 7 | –
14 | Cc1cc2c(cc1Cc1ccc(C(=O)NCc3ccccc3F)o1)C(C)(C)CCC2(C)C [drawing 1090] | 81 | 89 | –
15 | Cc1cc2c(cc1Cc1ccc(C(=O)Nc3ccc4[nH]ncc4c3)o1)C(C)(C)CCC2(C)C [Compound 383] | – | – | remaining activity at 10 µM (1 h): 7%
16 | Cc1cc2c(cc1Cc1ccc(C(=O)NC(C)c3ccc([N+](=O)[O-])cc3)o1)C(C)(C)CCC2(C)C (stereo not drawn) [Compound 455] | – | – | remaining activity at 1 µM (1 h): 58%
17 | COc1cccc(CCNC(=O)c2ccc(Cc3cc4c(cc3C)C(C)(C)CCC4(C)C)o2)c1OC [drawing 1147] | 58 | 63 | –
18 | Cc1cc2c(cc1Cc1ccc(C(=O)NCc3ccc4c(c3)OCO4)o1)C(C)(C)CCC2(C)C [drawing 992] | 75 | 92 | –
19 | Cc1cc2c(cc1Cc1ccc(C(=O)N3CCN(c4ccc(F)cc4)CC3)o1)C(C)(C)CCC2(C)C | -24 | 9 | –
20 | COc1ccc(NC(=O)c2ccc(Cc3cc4c(cc3C)C(C)(C)CCC4(C)C)o2)cn1 [Compound 325] | – | – | remaining activity at 10 µM (1 h): 3%
21 | Cc1cc2c(cc1Cc1ccc(C(=O)Nc3c(C)cccc3C)o1)C(C)(C)CCC2(C)C [Compound 397] | – | – | remaining activity at 10 µM (1 h): 43%
22 | COc1cc(CNC(=O)c2ccc(Cc3cc4c(cc3C)C(C)(C)CCC4(C)C)o2)cc(OC)c1 [drawing 1026] | 24 | 35 | –
23 | Cc1cccc(NC(=O)c2ccc(Cc3cc4c(cc3C)C(C)(C)CCC4(C)C)o2)c1 [Compound 364] | – | – | remaining activity at 10 µM (1 h): 21%
24 | Cc1cc2c(cc1Cc1ccc(C(=O)NCCc3c[nH]c4ccc(Cl)cc34)o1)C(C)(C)CCC2(C)C [drawing 1007] | 31 | 45 | –
25 | Cc1cc2c(cc1Cc1ccc(C(=O)NCc3cccc(F)c3)o1)C(C)(C)CCC2(C)C [Compound 443] | – | – | remaining activity at 1 µM (1 h): 19%
26 | Cc1cc2c(cc1Cc1ccc(C(=O)N(C)[C@H](C)[C@@H](O)c3ccccc3)o1)C(C)(C)CCC2(C)C | 20 | 23 | –
27 | Cc1cc2c(cc1Cc1ccc(C(=O)NCCc3cccc(F)c3)o1)C(C)(C)CCC2(C)C [drawing 1181] | 59 | 62 | –

Row | SMILES | inhibition at 1 µM [1] [%] | inhibition at 1 µM [2] [%] | other results
28 | Cc1cc2c(cc1Cc1ccc(C(=O)NCc3cccc(Cl)c3)o1)C(C)(C)CCC2(C)C [Compound 427] | – | – | remaining activity at 1 µM (1 h): 20%
29 | Cc1cc2c(cc1Cc1ccc(C(=O)NCc3ccc(Cl)cc3)o1)C(C)(C)CCC2(C)C [drawing 1091] | 68 | 68 | –
30 | Cc1cc2c(cc1Cc1ccc(C(=O)NCCc3cccnc3)o1)C(C)(C)CCC2(C)C [drawing 1032] | 80 | 90 | –
31 | Cc1cc2c(cc1Cc1ccc(C(=O)NC(C)c3ccccc3)o1)C(C)(C)CCC2(C)C (stereo not drawn) [Compound 428] | – | – | remaining activity at 1 µM (1 h): 46%
32 | Cc1cc2c(cc1Cc1ccc(C(=O)NCCc3ccccc3Cl)o1)C(C)(C)CCC2(C)C [Compound 55] | – | – | IC50: 570 nM
33 | COc1cc(OC)c(NC(=O)c2ccc(C(O)c3cc4c(cc3C)C(C)(C)CCC4(C)C)o2)c(OC)c1 (stereo not drawn) [AXC- 07047] | – | – | IC50: 1410 nM
34 | Cc1cc2c(cc1Cc1ccc(C(=O)NCc3ccc(Cl)cc3Cl)o1)C(C)(C)CCC2(C)C [drawing 1133] | 53 | 64 | –
35 | Cc1cc2c(cc1Cc1ccc(C(=O)N(C)Cc3ccccc3)o1)C(C)(C)CCC2(C)C | -7 | 4 | –
36 | Cc1cc2c(cc1Cc1ccc(C(=O)Nc3ccccc3C(=O)NCCCN3CCCC3=O)o1)C(C)(C)CCC2(C)C [Compound 368] | – | – | remaining activity at 10 µM (1 h): 56%
37 | Cc1cc2c(cc1Cc1ccc(C(=O)N(C)[C@@H](C)[C@@H](O)c3ccccc3)o1)C(C)(C)CCC2(C)C | -11 | -9 | –
38 | CC(=O)c1cccc(NC(=O)c2ccc(Cc3cc4c(cc3C)C(C)(C)CCC4(C)C)o2)c1 [Compound 392] | – | – | remaining activity at 10 µM (1 h): 0%
39 | COc1cc(OC)c([N+](=O)[O-])c(NC(=O)c2ccc(Cc3cc4c(cc3C)C(C)(C)CCC4(C)C)o2)c1[N+](=O)[O-] [Compound 173] | – | – | IC50: 2800 nM
40 | COc1cc(OC)c(NC(=O)c2ccc(Cc3cc(C(C)=O)c(C)cc3C)o2)c(OC)c1 [Compound 230] | – | – | IC50: 580 nM
41 | Cc1cc2c(cc1Cc1ccc(C(=O)N3CCN(c4cccc(C(F)(F)F)c4)CC3)o1)C(C)(C)CCC2(C)C | -25 | 3 | –
42 | Cc1cc2c(cc1Cc1ccc(C(=O)Nc3cccc(C#N)c3)o1)C(C)(C)CCC2(C)C [Compound 351] | – | – | remaining activity at 10 µM (1 h): 24%
43 | Cc1cc2c(cc1Cc1ccc(C(=O)NC3CCN(c4nccc(NCC5CCCO5)n4)C3)o1)C(C)(C)CCC2(C)C (stereo not drawn) [drawing 1036] | -12 | 0 | –
44 | COc1ccc(OC)c(CCNC(=O)c2ccc(Cc3cc4c(cc3C)C(C)(C)CCC4(C)C)o2)c1 [drawing 996] | 23 | 36 | –
45 | COc1cccc(CNC(=O)c2ccc(Cc3cc4c(cc3C)C(C)(C)CCC4(C)C)o2)c1OC [Compound 410] | – | – | remaining activity at 1 µM (1 h): 21%
46 | Cc1cc2c(cc1Cc1ccc(C(=O)NC(c3ccccc3)c3ccccc3)o1)C(C)(C)CCC2(C)C [drawing 1077] | – | – | % Inhib. @ 1 uM hGnRH (1 uM): −7%; Repeats @ 1 uM hGnRH (repeat of % Inhib. at 1 uM): −7
47 | Cc1cc2c(cc1Cc1ccc(C(=O)NCCOCCO)o1)C(C)(C)CCC2(C)C [Compound 401] | – | – | remaining activity at 1 µM (1 h): 32%
48 | Cc1cc2c(cc1Cc1ccc(C(=O)NCc3ccc(F)c(C(F)(F)F)c3)o1)C(C)(C)CCC2(C)C | 11 | 16 | –
49 | COc1ccc(CNC(=O)c2ccc(Cc3cc4c(cc3C)C(C)(C)CCC4(C)C)o2)cc1OC [Compound 411] | – | – | remaining activity at 1 µM (1 h): 28%
50 | COc1cc(OC)c(NC(=O)c2ccc(C(=O)c3cc4c(cc3C)C(C)(C)CCC4(C)C)o2)c(OC)c1 [Compound 190] | – | – | IC50: 420 nM
51 | Cc1cc2c(cc1Cc1ccc(C(=O)NCCCN3CCOCC3)o1)C(C)(C)CCC2(C)C [drawing 978] | 57 | 58 | –
52 | Cc1cc2c(cc1Cc1ccc(C(=O)NCCNc3nccc(NCC4CCCO4)n3)o1)C(C)(C)CCC2(C)C (stereo not drawn) [Compound 63] | – | – | IC50: 2500 nM
53 | Cc1cnc(CNC(=O)c2ccc(Cc3ccccc3)o2)cn1 [Compound 45] | – | – | IC50: > 10000 nM
54 | Cc1cc2c(cc1Cc1ccc(C(=O)NC[C@H]3CC[C@H](CNc4ccnc(NC[C@H]5CCCO5)n4)CC3)o1)C(C)(C)CCC2(C)C [Compound 178] | – | – | IC50: 185 nM
